According to patent publication US12653191B2, “Active compound combinations” (Bayer Aktiengesellschaft, priority 2020, dated 2026):
Several values for one entry are separate records, joined by “and”; a condition that tells them apart may be missing. Equal values may be shown once. Read-outs that look alike come from different tables or passages of the source.

How the values were obtained:
[1] = tested on: Cercospora beticola; experiment: in vitro-Test with fungal microorganisms, Method A (tables C1-C10); type: cell-based
Summary of the method: (§1)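 First, compound in methanol with alkylaryl-polyglycol-ether was dried down in the plate. Next, spore or mycelium suspension in potato dextrose broth was added and extinction read at 620 nm. After 3-5 days at 20° C, 85% RH, reading was repeated and efficacy scored against untreated wells.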

[2] = tested on: Fusarium culmorum; experiment: in vitro-Test with fungal microorganisms, Method A (tables G1-G4); type: cell-based; conditions: Fusarium culmorum, alone, read-out: Efficacy
Method: (§2) Example: In Vitro-Test with Fungal Microorganisms
(§3) Wells of 96-well microtiter plates are filled with 10 μl of a preparation of test compound or compound combination in methanol+emulsifier alkylaryl-polyglycol-ether. Thereafter, the solvent is evaporated in a hood. At the next step, 100 μl of liquid potato dextrose medium is given into each well, that has been amended with an appropriate concentration of spores or mycelium suspension of the test fungus.
With the aid of a photometer, the extinction in all wells is measured at the wavelength of 620 nm.
The microtiter plates are incubated at 20° C. and 85% relative humidity. The inhibition of growth is determined again photometrically 3-5 days after the application. Efficacy is calculated in relation to the untreated control, 0% efficacy means fungal growth as high as in untreated control while 100% efficacy means no fungal growth is measured.
(§4) The data in tables A1 to A12, B1 to B14, C1 to C10, D1 to D8, E1 to E8, F1 to F11, G1 to G4, H1 to H4 and I1 to I5 were collected according to Method A. The data in tables A13 to A22, B15 to B18, C11 to C20, E9 to E16, F12 to F15, G5 to G15, H5 to H8, I6 to I11 and J1 to J11 were collected according to Method B.

[3] = tested on: Cordana musae; experiment: in vitro-Test with fungal microorganisms, Method A (tables E1-E8); type: cell-based; conditions: mixing partner alone
Summary of the method: as §1

[4] = tested on: Diaporthe citri; experiment: in vitro-Test with fungal microorganisms, Method A (tables F1-F11); type: cell-based
Summary of the method: as §1

[5] = tested on: Colletotrichum coccodes; experiment: in vitro-Test with fungal microorganisms, Method B (tables J1-J11); type: cell-based
Summary of the method: (§5)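 Cpd in MeOH + alkylaryl-polyglycol-ether, solvent evaporated; liquid medium + fungal spores/mycelium added; OD600 read; 3–7 d, 20° C., 85% RH; growth inhibition by photometry, % efficacy vs untreated ctrl.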

[6] = tested on: Botrytis cinerea; experiment: in vitro-Test with fungal microorganisms, Method A (tables B1-B14); type: cell-based
Summary of the method: as §1

[7] = tested on: Fusarium culmorum; experiment: in vitro-Test with fungal microorganisms, Method B (tables G5-G15); type: cell-based
Summary of the method: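 Efficacy scale: 0% means growth equal to the untreated control, 100% means none detected. Compounds are dried from methanol with emulsifier before adding inoculated growth medium; incubation at 20° C., 85% relative humidity for 3 to 7 days precedes photometric inhibition readout.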

[8] = tested on: Cercospora beticola; experiment: in vitro-Test with fungal microorganisms, Method B (tables C11-C20); type: cell-based
Summary of the method: as §5

[9] = tested on: Cordana musae; experiment: in vitro-Test with fungal microorganisms, Method B (tables E9-E16); type: cell-based; conditions: single active
Summary of the method: as §5

[10] = tested on: Alternaria alternate; experiment: in vitro-Test with fungal microorganisms, Method A (tables A1-A12); type: cell-based, Alternaria alternata; conditions: applied alone
Summary of the method: as §1

[11] = tested on: Parastagonospora nodorum; experiment: in vitro-Test with fungal microorganisms, Method B (tables H5-H8); type: cell-based
Method: as §2
as §3, with “30” for “10”, “200” for “100”, “growth” for “potato dextrose”, “given,” for “given into each well,”
With the aid of a photometer, the extinction in all wells is measured at the wavelength of 600 nm.
The microtiter plates are incubated for 3 to 7 days at 20° C. and 85% relative humidity. After the incubation inhibition of growth is determined photometrically. Efficacy is calculated in relation to the untreated control, 0% efficacy means fungal growth as high as in untreated control while 100% efficacy means no fungal growth is measured.
as §4

[12] = tested on: Colletotrichum lindemuthianum; experiment: in vitro-Test with fungal microorganisms, Method A (tables D1-D8); type: cell-based; conditions: for inhibition of growth at 0.008 ppm / inhibition of growth at 0.04 ppm / inhibition of growth at 0.2 ppm / inhibition of growth at 1 ppm: Colletotrichum lindemuthianum, read-out: Efficacy %
Summary of the method: as §1

[13] = tested on: Botrytis cinerea; experiment: in vitro-Test with fungal microorganisms, Method B (tables B15-B18); type: cell-based
Summary of the method: as §5

[14] = tested on: Alternaria alternata; experiment: in vitro-Test with fungal microorganisms, Method B (tables A13-A22); type: cell-based
Summary of the method: as §5

[15] = Botrytis cinerea, read-out: Efficacy
[16] = Botrytis cinerea, alone, read-out: Efficacy %

In the case of `CC(C)(C)C(O)(CCc1ccc(Cl)cc1)Cn1cncn1` (stereo not shown) [(1.021) tebuconazole, tebuconazole], the inhibition of growth at 0.008 ppm ([1]; Cercospora beticola, 0.008 ppm alone, read-out: Efficacy %) is reported as 12%, the inhibition of growth at 0.04 ppm ([1]; Cercospora beticola, 0.04 ppm alone, read-out: Efficacy %) is reported as 32% and the inhibition of growth at 0.2 ppm ([1]; Cercospora beticola, 0.2 ppm alone, read-out: Efficacy %) is reported as 100%. It also gave an inhibition of growth at 0.008 ppm ([2]; 0.008 ppm) of 8%, an inhibition of growth at 0.04 ppm ([2]; 0.04 ppm) of 21% and an inhibition of growth at 1 ppm ([2]; 1.0 ppm) of 98%. It also gave an inhibition of growth at 0.04 ppm ([3]; Neocordana musae, 0.04 ppm, read-out: Efficacy %) of 0%, an inhibition of growth at 0.2 ppm ([3]; Neocordana musae, 0.2 ppm, read-out: Efficacy %) of 29% and an Efficacy % ([3]; 1.0 ppm) of 99%. For the same compound, the inhibition of growth at 0.008 ppm ([4]; Diaporthe citri, applied alone, 0.008 ppm, read-out: Efficacy) was 28%, the inhibition of growth at 0.2 ppm ([4]; Diaporthe citri, applied alone, 0.2 ppm, read-out: Efficacy) was 89% and the inhibition of growth at 0.04 ppm ([5]; Colletotrichum coccodes, 0.04 ppm, read-out: Efficacy %) was 0%. It also gave an inhibition of growth at 0.2 ppm ([5]; Colletotrichum coccodes, read-out: Efficacy %) of 4%, an inhibition of growth at 0.008 ppm ([5]; Colletotrichum coccodes, applied alone, 0.008 ppm, read-out: Efficacy %) of 0% and an inhibition of growth at 0.04 ppm ([5]; Colletotrichum coccodes, applied alone, 0.04 ppm, read-out: Efficacy %) of 0%. The inhibition of growth at 0.2 ppm ([5]; Colletotrichum coccodes, applied alone, read-out: Efficacy %) was 0%, the inhibition of growth at 0.008 ppm ([5]; Colletotrichum coccodes, single active compound at 0.008 ppm, read-out: Efficacy %) was 0% and the inhibition of growth at 0.04 ppm ([5]; Colletotrichum coccodes, single active compound at 0.04 ppm, read-out: Efficacy %) was 7%. The inhibition of growth at 1 ppm ([5]; Colletotrichum coccodes, single active compound at 1 ppm, read-out: Efficacy %) was 87%, the inhibition of growth at 0.04 ppm [6, 15] was 0% and the inhibition of growth at 0.2 ppm [6, 15] was 37%. It also gave an inhibition of growth at 1 ppm ([6]; Botrytis cinerea, 1.0 ppm, read-out: Efficacy) of 94%, an inhibition of growth at 0.008 ppm ([6]; Botrytis cinerea, alone, 0.008 ppm, read-out: Efficacy %) of 0% and an inhibition of growth at 0.04 ppm [6, 16] of 0%. It also gave an inhibition of growth at 0.2 ppm [6, 16] of 45%, an inhibition of growth at 1 ppm ([7]; Fusarium culmorum, 1 ppm, alone, read-out: Efficacy) of 79% and an inhibition of growth at 0.008 ppm ([8]; Cercospora beticola, single compound, 0.008 ppm, read-out: Efficacy %) of 4%. It also gave an inhibition of growth at 0.04 ppm ([8]; Cercospora beticola, single compound, 0.04 ppm, read-out: Efficacy %) of 1%, an inhibition of growth at 0.2 ppm ([8]; Cercospora beticola, single compound, 0.2 ppm, read-out: Efficacy %) of 62% and an inhibition of growth at 0.04 ppm ([9]; Neocordana musae, 0.04 ppm, read-out: Efficacy) of 2%. It also gave an inhibition of growth at 0.2 ppm ([9]; Neocordana musae, 0.2 ppm, read-out: Efficacy) of 25%, an inhibition of growth at 1 ppm ([9]; Neocordana musae, 1 ppm, read-out: Efficacy) of 71% and an inhibition of growth at 0.008 ppm ([10]; Alternaria, 0.008 ppm, read-out: Efficacy %) of 13%. The inhibition of growth at 0.04 ppm ([10]; Alternaria, 0.04 ppm, read-out: Efficacy %) was 19%, the inhibition of growth at 0.2 ppm ([10]; Alternaria, 0.2 ppm, read-out: Efficacy %) was 26% and the inhibition of growth at 0.008 ppm ([11]; Parastagonospora nodorum, 0.008 ppm, read-out: Efficacy) was 0%. It also gave an inhibition of growth at 0.04 ppm ([11]; Parastagonospora nodorum, 0.04 ppm, read-out: Efficacy) of 0%, an inhibition of growth at 0.2 ppm ([11]; Parastagonospora nodorum, 0.2 ppm, read-out: Efficacy) of 60% and an inhibition of growth at 1 ppm ([11]; Parastagonospora nodorum, 1 ppm, read-out: Efficacy) of 100%. The inhibition of growth at 0.008 ppm ([12]; mixing partner alone, 0.008 ppm) was 32%, the inhibition of growth at 0.04 ppm ([12]; mixing partner alone, 0.04 ppm) was 0% and the inhibition of growth at 0.2 ppm ([12]; mixing partner alone, 0.2 ppm) was 17%. The inhibition of growth at 1 ppm ([12]; mixing partner alone, 1.0 ppm) was 35%, the inhibition of growth at 0.008 ppm ([12]; single active at 0.008 ppm) was 0% and the inhibition of growth at 0.04 ppm ([12]; single active at 0.04 ppm) was 13%. It also gave an inhibition of growth at 0.2 ppm ([12]; single active at 0.2 ppm) of 0% and an inhibition of growth at 1 ppm ([12]; single active at 1.0 ppm) of 4%.

For `CCCOc1nc2ccc(I)cc2c(=O)n1CCC` [(13.004) proquinazid, proquinazid], the Efficacy % ([1]; 0.08 ppm alone) was 9%, the Efficacy % ([1]; 0.4 ppm alone) was 0% and the Efficacy % ([1]; 2.0 ppm alone) was 0%. For the same compound, the Efficacy % ([1]; 10.0 ppm, alone) was 19%, the Efficacy % ([13]; 0.4 ppm alone) was 0% and the Efficacy % ([13]; 2 ppm alone) was 3% and 5%. It also gave an Efficacy ([14]; 0.08 ppm) of 0%, an Efficacy ([14]; 0.4 ppm) of 3% and an Efficacy ([14]; 2 ppm) of 4%. The Efficacy ([14]; single compound, 0.08 ppm) was 11%, the Efficacy ([14]; single compound, 0.4 ppm) was 10% and the Efficacy ([14]; single compound, 2 ppm) was 0%. It also gave an Efficacy ([14]; single compound, 10 ppm) of 5%, an Efficacy % ([3]; 0.08 ppm) of 0% and an Efficacy % ([3]; 0.4 ppm) of 0%. The Efficacy % ([3]; 2.0 ppm) was 1%, the Efficacy % ([3]; 10.0 ppm) was 26% and the Efficacy ([4]; Table F10, 0.08 ppm alone) was 0%. The Efficacy ([4]; Table F10, 0.4 ppm alone) was 0%, the Efficacy ([4]; Table F10, 2.0 ppm alone) was 12% and the Efficacy ([4]; Table F10, 10.0 ppm alone) was 24%. It also gave an Efficacy ([4]; applied alone, 0.08 ppm) of 16%, an Efficacy ([4]; applied alone, 0.4 ppm) of 0% and an Efficacy ([4]; applied alone, 10.0 ppm) of 21%. For the same compound, the Efficacy % ([5]; single active compound at 0.4 ppm) was 0%, the Efficacy % ([5]; single active compound at 2 ppm) was 0% and the Efficacy % ([5]; single active compound at 10 ppm) was 0%. For the same compound, the Efficacy ([6]; 0.08 ppm) was 13%, the Efficacy ([6]; 0.4 ppm) was 0% and the Efficacy ([6]; 2.0 ppm) was 0%. It also gave an Efficacy ([6]; 10.0 ppm) of 0%, an Efficacy % ([6]; alone, 0.4 ppm) of 0% and an Efficacy % ([6]; alone, 10.0 ppm) of 0%. It also gave an Efficacy ([7]; 0.08 ppm alone) of 18%, an Efficacy ([7]; 0.4 ppm alone) of 0% and an Efficacy ([7]; single active compound, 0.08 ppm) of 2%. The Efficacy ([7]; single active compound, 0.4 ppm) was 11%, the Efficacy ([7]; single active compound, 2 ppm) was 8% and 7% and the Efficacy % ([8]; 2 ppm) was 0%. The Efficacy % ([8]; 10 ppm) was 0%, the Efficacy % ([8]; single compound, 0.08 ppm) was 0% and the Efficacy ([9]; 0.08 ppm) was 0% and 5%. The Efficacy ([9]; 0.4 ppm) was 0% and 3%, the Efficacy ([9]; 10 ppm) was 15% and 20% and the Efficacy % ([10]; 0.08 ppm) was 19%. The Efficacy % ([10]; 0.4 ppm) was 6%, the Efficacy % ([10]; 2.0 ppm) was 0% and the Efficacy % ([10]; 10.0 ppm) was 9%. For the same compound, the Efficacy ([11]; 0.08 ppm) was 32%, the Efficacy % ([12]; single active at 0.08 ppm) was 0% and the Efficacy % ([12]; single active at 0.4 ppm) was 0%. The Efficacy % ([12]; single active at 2.0 ppm) was 2% and the Efficacy % ([12]; single active at 10.0 ppm) was 25%.
